Among the data in publication PMC9856672, “SGC-CAMKK2-1: A Chemical Probe for CAMKK2” (Cells, 2023) are remaining binding values, retold here.

For one assay, the target named is T1, PDGFRA (Homo sapiens, UniProt P16234).
T1 construct: purchased Eurofins DiscoverX KINOMEscan
As to the kind of experiment: DiscoverX KINOMEscan binding assay at 1 μM, PDGFRA. The note with it: Compound Concentration 1000 nM, read-out: Percent Control. The source says:
(§1) Supplement cells-12-00287-s001.zip/File S2. KinomeScan data for the CAMKK2 probe and negative control.xlsx, sheet "SGC-CAMKK2-1" | column: Percent Control

A further assay addresses T2, AKT3 (Homo sapiens, UniProt Q9Y243).
T2 construct: purchased Eurofins DiscoverX KINOMEscan
As to the kind of experiment: KINOMEscan 1 μM, AKT3. The note with it: 1000 nM; Entrez AKT3; read-out: Percent Control. It is filed as binding.
From the text: as §1

The next assay addresses T3, p38-alpha (Homo sapiens, UniProt Q16539).
T3 construct: purchased Eurofins DiscoverX KINOMEscan
The assay is described as follows: KINOMEscan 1 μM, p38-alpha. It is filed as binding. The note with it: 1000 nM; Entrez MAPK14; read-out: Percent Control.
From the text: as §1

In the next assay the target is T4, FLT3-autoinhibited (Homo sapiens, UniProt P36888).
T4 construct: purchased Eurofins DiscoverX KINOMEscan
The assay is described as follows: KINOMEscan 1 μM, FLT3-autoinhibited. It counts as binding. The note with it: 1000 nM; Entrez FLT3; read-out: Percent Control.
From the text: as §1

The next assay has as its target T5, MYLK4 (Homo sapiens, UniProt Q86YV6).
T5 construct: purchased Eurofins DiscoverX KINOMEscan
As to the kind of experiment: KINOMEscan 1 μM, MYLK4. It counts as binding. Conditions: 1000 nM; Entrez MYLK4; read-out: Percent Control.
From the text: as §1

The target of a further assay is T6, PKAC-beta (Homo sapiens, UniProt P22694).
T6 construct: purchased Eurofins DiscoverX KINOMEscan
The assay is described as follows: DiscoverX KINOMEscan binding assay at 1 μM, PKAC-beta. Conditions: PKAC-beta (PRKACB); Compound Concentration 1000 nM; read-out: Percent Control.
From the text: as §1

The next assay has as its target T7, PRKG2 (Homo sapiens, UniProt Q13237).
T7 construct: purchased Eurofins DiscoverX KINOMEscan
The assay is described as follows: KINOMEscan 1 μM, PRKG2. It counts as binding. Conditions: 1000 nM; Entrez PRKG2; read-out: Percent Control.
From the text: as §1

The next assay addresses T8, YANK2 (Homo sapiens, UniProt Q9NY57).
T8 construct: purchased Eurofins DiscoverX KINOMEscan
The assay is described as follows: DiscoverX KINOMEscan binding assay at 1 μM, YANK2. Conditions: YANK2 (STK32B); Compound Concentration 1000 nM; read-out: Percent Control.
From the text: as §1

The next assay deals with T9, PKN1 (Homo sapiens, UniProt Q16512).
T9 construct: purchased Eurofins DiscoverX KINOMEscan
The assay is described as follows: KINOMEscan 1 μM, PKN1. It is filed as binding. Conditions: 1000 nM; Entrez PKN1; read-out: Percent Control.
From the text: as §1

In the next assay the target is T10, CTK (Homo sapiens, UniProt P42679).
T10 construct: purchased Eurofins DiscoverX KINOMEscan
The assay is described as follows: KINOMEscan 1 μM, CTK. It counts as binding. Conditions: 1000 nM; Entrez MATK; read-out: Percent Control.
From the text: as §1

Another assay deals with T11, S6K1 (Homo sapiens, UniProt P23443).
T11 construct: purchased Eurofins DiscoverX KINOMEscan
T11 sequence (P23443 whole entry): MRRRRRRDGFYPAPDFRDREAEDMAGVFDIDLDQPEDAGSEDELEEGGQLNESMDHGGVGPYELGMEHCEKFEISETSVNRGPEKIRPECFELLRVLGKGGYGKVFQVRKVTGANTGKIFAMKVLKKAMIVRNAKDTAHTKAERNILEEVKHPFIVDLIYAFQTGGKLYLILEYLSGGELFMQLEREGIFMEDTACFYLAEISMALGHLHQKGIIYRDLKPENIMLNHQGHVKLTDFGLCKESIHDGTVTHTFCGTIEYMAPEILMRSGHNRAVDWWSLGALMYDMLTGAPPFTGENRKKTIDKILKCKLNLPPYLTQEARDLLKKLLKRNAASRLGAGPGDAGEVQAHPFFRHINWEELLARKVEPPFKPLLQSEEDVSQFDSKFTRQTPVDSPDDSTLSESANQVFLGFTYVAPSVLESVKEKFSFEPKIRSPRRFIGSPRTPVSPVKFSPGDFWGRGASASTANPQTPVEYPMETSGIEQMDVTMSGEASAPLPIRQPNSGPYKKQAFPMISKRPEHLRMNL
The assay is described as follows: DiscoverX KINOMEscan binding assay at 1 μM, S6K1. The note with it: S6K1 (RPS6KB1); Compound Concentration 1000 nM; read-out: Percent Control.
From the text: as §1

The next assay deals with T12, ACVR2A (Homo sapiens, UniProt P27037).
T12 construct: purchased Eurofins DiscoverX KINOMEscan
The assay is described as follows: KINOMEscan 1 μM, ACVR2A. It counts as binding. Conditions: 1000 nM; Entrez ACVR2A; read-out: Percent Control.
From the text: as §1

For a further assay, the target named is T13, BMPR1A (Homo sapiens, UniProt P36894).
T13 construct: purchased Eurofins DiscoverX KINOMEscan
The assay is described as follows: KINOMEscan 1 μM, BMPR1A. It is filed as binding. The note with it: 1000 nM; Entrez BMPR1A; read-out: Percent Control.
From the text: as §1

A further assay addresses T14, STK39 (Homo sapiens, UniProt Q9UEW8).
T14 construct: purchased Eurofins DiscoverX KINOMEscan
As to the kind of experiment: KINOMEscan at 1 μM, STK39. It is filed as binding. Conditions: 1000 nM, read-out: Percent Control. The source says: (§2) Supplement cells-12-00287-s001.zip/File S2. KinomeScan data for the CAMKK2 probe and negative control.xlsx, sheet "SGC-CAMKK2-1N" | column: Percent Control

In another assay the target is T15, IRAK4 (Homo sapiens, UniProt Q9NWZ3).
T15 construct: purchased Eurofins DiscoverX KINOMEscan
The assay is described as follows: KINOMEscan at 1 μM, IRAK4. It is filed as binding. The note with it: 1000 nM, read-out: Percent Control.
From the text: as §2

In another assay the target is T16, KIT (Homo sapiens, UniProt P10721).
T16 construct: purchased Eurofins DiscoverX KINOMEscan
T16 sequence (P10721 26-976): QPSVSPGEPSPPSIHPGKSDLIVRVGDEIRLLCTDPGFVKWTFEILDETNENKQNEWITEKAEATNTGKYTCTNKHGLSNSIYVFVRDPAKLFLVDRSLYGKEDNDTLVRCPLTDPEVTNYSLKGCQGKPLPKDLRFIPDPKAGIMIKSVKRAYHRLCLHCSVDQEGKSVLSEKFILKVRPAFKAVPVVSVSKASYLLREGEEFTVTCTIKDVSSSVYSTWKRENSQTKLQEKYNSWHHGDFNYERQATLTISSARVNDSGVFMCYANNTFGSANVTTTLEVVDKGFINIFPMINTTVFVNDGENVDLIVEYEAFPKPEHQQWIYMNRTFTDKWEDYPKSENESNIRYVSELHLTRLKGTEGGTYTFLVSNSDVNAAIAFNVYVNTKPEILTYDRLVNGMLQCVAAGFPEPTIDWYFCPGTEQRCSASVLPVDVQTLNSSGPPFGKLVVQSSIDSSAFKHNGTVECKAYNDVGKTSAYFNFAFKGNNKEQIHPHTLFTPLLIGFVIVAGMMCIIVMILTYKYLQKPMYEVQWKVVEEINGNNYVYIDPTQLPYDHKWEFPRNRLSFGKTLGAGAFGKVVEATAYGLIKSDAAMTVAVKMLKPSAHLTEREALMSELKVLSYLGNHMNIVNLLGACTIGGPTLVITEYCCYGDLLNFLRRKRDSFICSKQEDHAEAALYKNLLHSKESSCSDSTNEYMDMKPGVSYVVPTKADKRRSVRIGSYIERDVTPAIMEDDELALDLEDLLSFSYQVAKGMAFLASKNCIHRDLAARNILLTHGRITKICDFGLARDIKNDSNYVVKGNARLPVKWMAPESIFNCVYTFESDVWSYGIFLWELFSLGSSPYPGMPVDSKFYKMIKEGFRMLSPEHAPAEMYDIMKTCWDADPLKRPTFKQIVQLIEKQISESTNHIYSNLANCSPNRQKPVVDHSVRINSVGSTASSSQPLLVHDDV
The assay is described as follows: KINOMEscan at 1 μM, KIT. It counts as binding. Conditions: 1000 nM, read-out: Percent Control.
From the text: as §2

The next assay addresses T17, PLK1 (Homo sapiens, UniProt P53350).
T17 construct: purchased Eurofins DiscoverX KINOMEscan
The assay is described as follows: KINOMEscan at 1 μM, PLK1. It counts as binding. The note with it: 1000 nM, read-out: Percent Control.
From the text: as §2

For another assay, the target named is T18, TEC (Homo sapiens, UniProt P42680).
T18 construct: purchased Eurofins DiscoverX KINOMEscan
T18 sequence (P42680 whole entry): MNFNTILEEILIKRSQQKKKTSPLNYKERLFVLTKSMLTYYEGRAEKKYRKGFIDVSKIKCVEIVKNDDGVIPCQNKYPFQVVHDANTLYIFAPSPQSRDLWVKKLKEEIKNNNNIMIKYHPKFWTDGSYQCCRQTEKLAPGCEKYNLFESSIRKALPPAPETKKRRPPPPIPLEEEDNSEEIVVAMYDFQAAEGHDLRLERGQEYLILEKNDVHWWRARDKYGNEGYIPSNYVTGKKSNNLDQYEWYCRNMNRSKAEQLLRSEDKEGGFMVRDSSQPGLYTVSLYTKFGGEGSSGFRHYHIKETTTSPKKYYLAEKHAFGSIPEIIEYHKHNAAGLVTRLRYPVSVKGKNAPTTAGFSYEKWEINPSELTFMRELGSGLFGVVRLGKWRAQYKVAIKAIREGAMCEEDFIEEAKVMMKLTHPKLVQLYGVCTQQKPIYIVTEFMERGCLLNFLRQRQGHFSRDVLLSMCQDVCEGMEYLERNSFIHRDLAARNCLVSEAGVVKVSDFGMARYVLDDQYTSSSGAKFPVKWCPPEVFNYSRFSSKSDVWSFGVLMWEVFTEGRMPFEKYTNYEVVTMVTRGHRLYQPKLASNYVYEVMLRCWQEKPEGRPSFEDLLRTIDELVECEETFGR
As to the kind of experiment: KINOMEscan at 1 μM, TEC. Conditions: 1000 nM, read-out: Percent Control. It is filed as binding.
From the text: as §2

The next assay deals with T19, PIK3CA(E542K) (Homo sapiens, UniProt P42336, E542K).
T19 construct: purchased Eurofins DiscoverX KINOMEscan
The assay is described as follows: KINOMEscan at 1 μM, PIK3CA(E542K). It is filed as binding. Conditions: 1000 nM, read-out: Percent Control.
From the text: as §2

Assay [1] deals with T20, ABL1(F317L)-nonphosphorylated (Homo sapiens, UniProt P00519, F317L).
T20 construct: purchased Eurofins DiscoverX KINOMEscan
The assay is described as follows: KINOMEscan at 1 μM, ABL1(F317L)-nonphosphorylated. It is filed as binding. Conditions: 1000 nM, read-out: Percent Control.
From the text: as §2

In another assay the target is T21, MERTK (Homo sapiens, UniProt Q12866).
T21 construct: purchased Eurofins DiscoverX KINOMEscan
As to the kind of experiment: KINOMEscan at 1 μM, MERTK. It is filed as binding. Conditions: 1000 nM, read-out: Percent Control.
From the text: as §2

The target of another assay is T22, MAP3K15 (Homo sapiens, UniProt Q6ZN16).
T22 construct: purchased Eurofins DiscoverX KINOMEscan
As to the kind of experiment: KINOMEscan binding assay at 1 μM, MAP3K15. The note with it: Compound Concentration 1000 nM; read-out: Percent Control.
From the text: as §2

Another assay addresses T23, MAP3K4 (Homo sapiens, UniProt Q9Y6R4).
T23 construct: purchased Eurofins DiscoverX KINOMEscan
The assay is described as follows: KINOMEscan at 1 μM, MAP3K4. It is filed as binding. The note with it: 1000 nM, read-out: Percent Control.
From the text: as §2

Another assay concerns the target T24, INSRR (Homo sapiens, UniProt P14616).
T24 construct: purchased Eurofins DiscoverX KINOMEscan
As to the kind of experiment: KINOMEscan at 1 μM, INSRR. It is filed as binding. The note with it: 1000 nM, read-out: Percent Control.
From the text: as §2

The target in another assay is T25, PIK3CB (Homo sapiens, UniProt P42338).
T25 construct: purchased Eurofins DiscoverX KINOMEscan
As to the kind of experiment: KINOMEscan at 1 μM, PIK3CB. It is filed as binding. The note with it: 1000 nM, read-out: Percent Control.
From the text: as §2

The target of the next assay is T26, ANKK1 (Homo sapiens, UniProt Q8NFD2).
T26 construct: purchased Eurofins DiscoverX KINOMEscan
As to the kind of experiment: KINOMEscan at 1 μM, ANKK1. It counts as binding. Conditions: 1000 nM, read-out: Percent Control.
From the text: as §2

The next assay deals with T27, BRAF(V600E) (Homo sapiens, UniProt P15056, V600E).
T27 construct: purchased Eurofins DiscoverX KINOMEscan
As to the kind of experiment: KINOMEscan at 1 μM, BRAF(V600E). Conditions: 1000 nM, read-out: Percent Control. It counts as binding.
From the text: as §2

A further assay has as its target T28, RIOK1 (Homo sapiens, UniProt Q9BRS2).
T28 construct: purchased Eurofins DiscoverX KINOMEscan
The assay is described as follows: KINOMEscan at 1 μM, RIOK1. It is filed as binding. Conditions: 1000 nM, read-out: Percent Control.
From the text: as §2

In another assay the target is T29, PFCDPK1(P.falciparum) (Plasmodium falciparum, UniProt P62344).
T29 construct: purchased Eurofins DiscoverX KINOMEscan
As to the kind of experiment: KINOMEscan binding assay at 1 μM, PFCDPK1(P.falciparum). The note with it: Compound Concentration 1000 nM; read-out: Percent Control.
From the text: as §2

A further assay deals with T30, ABL1-phosphorylated (Homo sapiens, UniProt P00519).
T30 construct: purchased Eurofins DiscoverX KINOMEscan
The assay is described as follows: KINOMEscan at 1 μM, ABL1-phosphorylated. It is filed as binding. Conditions: 1000 nM, read-out: Percent Control.
From the text: as §2

The next assay concerns the target T31, TIE1 (Homo sapiens, UniProt P35590).
T31 construct: purchased Eurofins DiscoverX KINOMEscan
As to the kind of experiment: KINOMEscan binding assay at 1 μM, TIE1. Conditions: Compound Concentration 1000 nM; read-out: Percent Control.
From the text: as §2

Another assay deals with T32, MARK4 (Homo sapiens, UniProt Q96L34).
T32 construct: purchased Eurofins DiscoverX KINOMEscan
T32 sequence (Q96L34 whole entry): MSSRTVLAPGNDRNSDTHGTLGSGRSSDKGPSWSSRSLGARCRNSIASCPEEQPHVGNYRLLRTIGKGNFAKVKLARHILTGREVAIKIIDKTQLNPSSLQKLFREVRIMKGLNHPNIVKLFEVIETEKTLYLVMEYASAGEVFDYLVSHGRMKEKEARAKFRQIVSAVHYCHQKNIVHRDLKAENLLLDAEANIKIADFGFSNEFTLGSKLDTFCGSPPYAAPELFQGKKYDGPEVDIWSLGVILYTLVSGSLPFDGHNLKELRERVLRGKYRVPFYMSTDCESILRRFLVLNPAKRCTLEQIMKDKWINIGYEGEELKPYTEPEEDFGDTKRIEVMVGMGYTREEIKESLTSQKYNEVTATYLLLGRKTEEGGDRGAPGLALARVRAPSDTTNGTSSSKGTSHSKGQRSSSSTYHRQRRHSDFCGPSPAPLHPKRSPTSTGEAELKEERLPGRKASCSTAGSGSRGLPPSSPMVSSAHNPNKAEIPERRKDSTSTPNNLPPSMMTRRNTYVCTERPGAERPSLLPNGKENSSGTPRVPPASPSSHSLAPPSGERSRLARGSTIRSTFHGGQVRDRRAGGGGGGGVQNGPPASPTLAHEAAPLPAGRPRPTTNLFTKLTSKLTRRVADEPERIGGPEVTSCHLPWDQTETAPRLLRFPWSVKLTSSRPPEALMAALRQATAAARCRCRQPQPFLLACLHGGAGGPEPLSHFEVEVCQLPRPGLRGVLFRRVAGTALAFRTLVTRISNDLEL
The assay is described as follows: KINOMEscan binding assay at 1 μM, MARK4. The note with it: Compound Concentration 1000 nM; read-out: Percent Control.
From the text: as §2

Another assay addresses T33, EPHA1 (Homo sapiens, UniProt P21709).
T33 construct: purchased Eurofins DiscoverX KINOMEscan
As to the kind of experiment: KINOMEscan at 1 μM, EPHA1. It is filed as binding. Conditions: 1000 nM, read-out: Percent Control.
From the text: as §2

The target of a further assay is T34, IRAK3 (Homo sapiens, UniProt Q9Y616).
T34 construct: purchased Eurofins DiscoverX KINOMEscan
As to the kind of experiment: KINOMEscan at 1 μM, IRAK3. It counts as binding. The note with it: 1000 nM, read-out: Percent Control.
From the text: as §2

T3 sequence (Q16539 whole entry): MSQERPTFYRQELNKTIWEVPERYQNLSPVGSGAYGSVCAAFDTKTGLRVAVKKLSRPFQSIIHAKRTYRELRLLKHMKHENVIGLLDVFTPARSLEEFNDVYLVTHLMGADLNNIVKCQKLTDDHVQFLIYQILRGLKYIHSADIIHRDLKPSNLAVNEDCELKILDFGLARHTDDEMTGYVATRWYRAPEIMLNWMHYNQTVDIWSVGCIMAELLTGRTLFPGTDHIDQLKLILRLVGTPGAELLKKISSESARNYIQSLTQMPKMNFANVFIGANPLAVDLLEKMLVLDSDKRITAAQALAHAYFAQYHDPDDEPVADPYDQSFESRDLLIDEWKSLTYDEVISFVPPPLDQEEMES
T24 sequence (P14616 27-1297): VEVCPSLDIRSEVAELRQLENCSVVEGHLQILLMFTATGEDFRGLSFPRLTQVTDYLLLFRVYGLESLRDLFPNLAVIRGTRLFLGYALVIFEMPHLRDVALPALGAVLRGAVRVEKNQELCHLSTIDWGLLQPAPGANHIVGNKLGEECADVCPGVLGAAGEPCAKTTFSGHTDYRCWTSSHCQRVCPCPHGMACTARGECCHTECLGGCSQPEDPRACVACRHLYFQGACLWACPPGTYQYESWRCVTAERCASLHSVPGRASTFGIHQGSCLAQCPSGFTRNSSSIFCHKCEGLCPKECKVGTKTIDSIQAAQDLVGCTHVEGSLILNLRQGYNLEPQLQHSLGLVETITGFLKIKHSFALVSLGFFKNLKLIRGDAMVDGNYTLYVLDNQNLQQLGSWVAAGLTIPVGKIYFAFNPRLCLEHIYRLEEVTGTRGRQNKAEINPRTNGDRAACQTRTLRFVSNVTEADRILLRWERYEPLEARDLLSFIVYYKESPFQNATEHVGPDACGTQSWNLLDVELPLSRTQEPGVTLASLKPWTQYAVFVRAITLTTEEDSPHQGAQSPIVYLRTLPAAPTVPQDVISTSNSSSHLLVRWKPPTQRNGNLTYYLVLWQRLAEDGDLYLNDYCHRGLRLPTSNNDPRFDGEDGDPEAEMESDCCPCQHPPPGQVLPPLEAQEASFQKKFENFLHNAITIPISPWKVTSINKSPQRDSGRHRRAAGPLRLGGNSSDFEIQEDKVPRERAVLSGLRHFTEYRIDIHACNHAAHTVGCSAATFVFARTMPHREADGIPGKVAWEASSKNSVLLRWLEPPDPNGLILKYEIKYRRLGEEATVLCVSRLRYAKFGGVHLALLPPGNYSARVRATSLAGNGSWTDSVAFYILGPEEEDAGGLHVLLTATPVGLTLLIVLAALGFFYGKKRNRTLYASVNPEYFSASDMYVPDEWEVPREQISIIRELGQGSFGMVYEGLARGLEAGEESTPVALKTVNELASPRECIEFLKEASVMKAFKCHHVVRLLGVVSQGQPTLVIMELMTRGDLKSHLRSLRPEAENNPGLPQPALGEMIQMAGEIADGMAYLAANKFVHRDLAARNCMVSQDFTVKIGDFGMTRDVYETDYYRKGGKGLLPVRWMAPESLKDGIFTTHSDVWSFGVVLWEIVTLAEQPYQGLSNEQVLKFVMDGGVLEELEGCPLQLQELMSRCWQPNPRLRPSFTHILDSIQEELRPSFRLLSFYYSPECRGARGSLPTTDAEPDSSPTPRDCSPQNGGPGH
T8 sequence (Q9NY57 whole entry): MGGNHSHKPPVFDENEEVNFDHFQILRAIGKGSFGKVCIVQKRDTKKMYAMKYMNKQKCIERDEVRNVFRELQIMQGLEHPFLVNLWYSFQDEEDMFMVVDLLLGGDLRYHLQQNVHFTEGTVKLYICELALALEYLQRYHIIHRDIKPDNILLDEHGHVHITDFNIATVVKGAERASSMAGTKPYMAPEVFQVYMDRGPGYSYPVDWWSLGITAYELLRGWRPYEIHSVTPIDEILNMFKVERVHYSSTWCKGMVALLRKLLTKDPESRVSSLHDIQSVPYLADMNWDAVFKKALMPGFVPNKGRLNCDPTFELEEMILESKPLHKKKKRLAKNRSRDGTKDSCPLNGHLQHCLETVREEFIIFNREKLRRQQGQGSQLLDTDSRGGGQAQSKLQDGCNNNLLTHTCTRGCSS

Regarding `Cc1cccc(-c2cnc3occ(-c4ccc(C(=O)O)c(C5CCCC5)c4)c3c2)c1` [SGC-CAMKK2-1 (YL-36)], the remaining binding at 1 µM at PDGFRA, on AKT3, on p38-alpha, on FLT3-autoinhibited, on MYLK4 and on PKAC-beta was 100% each time. For the same molecule, the remaining binding at 1 µM is 99% at PRKG2; 100% on YANK2; 84% at PKN1; 100% on CTK; 100% on S6K1; 92% at ACVR2A. Besides, the remaining binding at 1 µM at BMPR1A stood at 100%.
Consider `O=C(O)c1ccc(-c2coc3ncc(-c4ccccc4)cc23)cc1Cl` [SGC-CAMKK2-1N (UNC-YL-83)], for which the remaining binding at 1 µM on STK39 was 77%; at IRAK4 it was 72%; at KIT, 89%; on PLK1 it was 79%; at TEC, 96%; at PIK3CA(E542K) it was 81%. Also, the remaining binding at 1 µM in [1] is 100%; on MERTK it was 93%; on MAP3K15, 100%; on MAP3K4, 68%; on INSRR, 96%; on PIK3CB it was 67%. Moreover, the remaining binding at 1 µM at ANKK1 was 78%; at BRAF(V600E) it was 87%; at RIOK1 it was 91%; on PFCDPK1(P.falciparum), 100%; at ABL1-phosphorylated, 69%; on TIE1, 100%. The remaining binding at 1 µM was 100% at MARK4, 61% on EPHA1 and 82% on IRAK3.
